Tests used:
[1] = system: patient CLL cells; assay: Apoptosis assay (Hoechst 33342, flow cytometry, 48 h); format: cell-based, human; design: unit not given here
Excerpt: Blood samples were obtained in heparinized tubes with IRB-approved consent from flow cytometry-confirmed B-CLL patients that were either untreated or for whom at least 1 month had elapsed since chemotherapy. Patients with active infections or other serious medical conditions were not included in this study. Patients with white blood cell counts of less than 15,000/μl by automated analysis were excluded from this study. Whole blood was layered on Ficoll-Hystopaque (Sigma), and peripheral blood mononuclear cells (PBMC) isolated after centrification. […] One million cells were stained with anti-CD5-PE and anti-CD19-PE-Cy5 (Becton Dickenson, Franklin Lakes N.J.). The percentage of B-CLL cells was defined as the percentage of cells doubly expressing CD5 and CDl9, as determined by flow cytometry. […] Compound master plates were diluted 1:50 into complete media to create working compound dilutions. Compound crosses were then created by diluting two working dilution plates 1:10 into each plate of cells. […] Hoechst 33342 (Molecular Probes, Eugene Oreg.) at a final concentration of 0.25 μg/1 mL was added to each well, and the cells incubated at 37° C. for an additional ten minutes before being placed on ice until analysis. Plates were then analyzed on a LSR-II flow cytometer (Becton Dickenson, Franklin Lakes, N.J.) equipped with the High Throughput Sampling (HTS) option in high throughput mode. […] The apoptotic fraction was calculated using FlowJo software (Tree Star Inc., Ashland, Oreg.) after excluding debris by a FSC/SSC gate and subsequently gating for cells that accumulate the Hoechst dye.

[2] = system: RPMI-8226, H929, MM.1S and MM.1R MM cell lines; assay: Anti-proliferation assay, statements across MM cell lines; format: cell-based, human; conditions: RPMI-8226, H929, MM.1S and MM.1R MM cell lines
Description: The MM.1S, MM.1R, H929, MOLP-8, EJM, INA-6, ANBL6, KSM-12-PE, OPM2, and RPMI-8226 multiple myeloma cell lines, as well as the Burkitt's lymphoma cell line GA-10 and the non-Hodgkin's lymphoma cell lines Farage, SU-DHL6, and Karpas 422 were cultured at 37° C. and 5% CO2 in RPMI-1640 media supplemented with 10% FBS. ANBL6 and INA-6 culture media was also supplemented with 10 ng/ml IL-6. The OCI-ly10 cell line was cultured using RPMI-1640 media supplemented with 20% human serum. MM.1S, MM.1R, OCI-ly10, Karpas 422, and SU-DHL6 cells were provided by the Dana Farber Cancer Institute. H929, RPMI-8226, GA-10, and Farage cells were from ATCC (Cat #'s CCL-155, CRL-9068, CRL-2392 and CRL-2630 respectively). MOLP-8, EJM, KSM-12-PE, and OPM2 were from DSMZ. The ANBL6 and INA-6 cell lines were provided by the M. D. Anderson Cancer Research Center.
Compounds were prepared in DMSO at 1000× the highest desired concentration. Master plates were generated consisting of serially diluted compounds in 2- or 3-fold dilutions in 384-well format. For single agent dose response curves, the master plates consisted of 9 individual compounds at 12 concentrations in 2- or 3-fold dilutions. For combination matrices, master plates consisted of individual compounds at 6 or 9 concentrations at 2- or 3-fold dilutions.
Cells were added to 384-well plates 24 hours prior to compound addition such that each well contained 2000 cells in 35 μL of media. Master plates were diluted 100× (1 μL into 100 μL) into 384-well dilution plates containing only cell culture media. 4.5 μL from each dilution plate was added to each assay plate for a final dilution of 1000×. To obtain combination data, two master plates were diluted into the assay plates. Following compound addition, assay plates were kept at 37° C. and 5% CO2 for 72 hours. Thirty microliters of ATPLite (Perkin Elmer) at room temperature was then added to each well. Final amount of ATP was quantified within 30 minutes using ATPLite luminescent read-out on an Envision 2103 Multilabel Reader (Perkin Elmer). Measurements were taken at the top of the well using a luminescence aperture and a read time of 0.1 seconds per well.
The Loewe additivity model was used to quantify combination effects. Combinations were ranked initially by Additivity Excess Volume, which is defined as ADD Volume=ΣCX, CY (Idata−ILoewe). where ILoewe(CX, CY) is the inhibition that satisfies (CX/ECX)+(CY/ECY)=1, and ECX,Y are the effective concentrations at ILoewe for the single agent curves. A “Synergy Score” was also used, where the Synergy Score S=log fX log fY ΣIdata(Idata−ILoewe), summed over all non-single-agent concentration pairs, and where log fX,Y is the natural logarithm of the dilution factors used for each single agent. This effectively calculates a volume between the measured and Loewe additive response surfaces, weighted towards high inhibition and corrected for varying dilution factors. An uncertainty σS was calculated for each synergy score, based on the measured errors for the Idata values and standard error propagation.

With `CCNC(=O)[C@H]1O[C@@H](n2cnc3c(N)nc(NCCc4ccc(CCC(=O)O)cc4)nc32)[C@H](O)[C@@H]1O` [CGS-21680, 2-(4-(2-carboxyethyl)phenethylamino)-5′-N-ethylcarboxamidoadenosine] the Induction of apoptosis ([1]; CGS-21680 0.05 μM, Roflumilast 0 μM (Table 50)) was 12, the Induction of apoptosis ([1]; CGS-21680 0.05 μM, Trequinsin 0 μM (Table 51)) was 16 and the Induction of apoptosis ([1]; CGS-21680 0.15 μM, Roflumilast 0 μM (Table 50)) was 15. It also gave an Induction of apoptosis ([1]; CGS-21680 0.15 μM, Trequinsin 0 μM (Table 51)) of 16, an Induction of apoptosis ([1]; CGS-21680 […], Roflumilast 0 μM (Table 50)) of 25 and an Induction of apoptosis ([1]; CGS-21680 […], Trequinsin 0 μM (Table 51)) of 27.
For `OC[C@H]1O[C@@H](n2cnc3c(NC4CCCC4)nc(Cl)nc32)[C@H](O)[C@@H]1O` [2-chloro-N-6-cyclopentyladenosine, 2-chloro-N^6-cyclopentyladenosine], the “activity and synergy of adenosine receptor agonists” value (from here on “activity and synergy”) [2] was “active and synergistic”.
`CNC(=O)[C@H]1O[C@@H](n2cnc3c(NCc4cccc(I)c4)ncnc32)[C@H](O)[C@@H]1O` [IB-MECA, N^6-(3-iodobenzyl)-5′-N-methylcarboxamidoadenosine] was tested, and the “activity and synergy” value [2] was “active and synergistic”.
`OC[C@H]1O[C@H](n2cnc3c(NC4CC5CCC4C5)ncnc32)[C@H](O)[C@@H]1O` (stereo partly drawn) [(S)-ENBA, S-N^6-(2-endo-norbornyl)adenosine] was tested, and the “activity and synergy” value [2] was “active and synergistic”.
`CNC(=O)[C@H]1O[C@@H](n2cnc3c(NCc4cccc(I)c4)nc(Cl)nc32)[C@H](O)[C@@H]1O` [chloro-IB-MECA, 2-chloro-N^6-(3-iodobenzyl)-5′-N-methylcarboxamidoadenosine] was tested, and the “activity and synergy” value [2] was “active and synergistic”.

Reference: US20090047243A1, “COMBINATIONS FOR THE TREATMENT OF B-CELL PROLIFERATIVE DISORDERS” (priority 2007, published 2009)
